Reference: patent US9738786B2, “Dyes for labelling molecular ligands” (ILLUMINA CAMBRIDGE LIMITED, priority 2011, dated 2017)

Key:
Format in all cases: physicochemical
[1] = Fluorescence of dye solutions in water
[2] = Stability over time (optical density of solution); conditions: after 14 days
[3] = Absorption spectra of dye solutions in water; conditions: for absorption maximum: in water
[4] = Photo-stability of dye solutions in water under irradiation
[5] = Stability of Dye 5A and 5B versus commercial dyes (FIG. 3)
[6] = Spectral properties of dye 9 (ScanMix)
Experimental: [drawing 69] 3 ml of acetic anhydride and 0.3 g triethylamine were heated 20 minutes at 110° C., acetic anhydride-removed under reduced pressure then the product precipitated with diethyl ether. The product was purified by HPLC. The absorption maximum of equimolar solutions in ScanMix of new dye 9 was 536 nm, 0.162 a.u.
A mixture of 0.39 g (1 mmol) of 4-ethyl-2-(2-anilino)vinyl-oxazolo[4,5-b]pyridinium iodide, 0.35 g (1 mmol) 2,3,3-trimethyl-1-(5-carboxypentyl)-3H-indolium-5-sulfonate, 3 ml of acetic anhydride and 0.13 g of sodium acetate was heated 20 minutes at 110° C. Acetic anhydride was removed under reduced pressure then the product precipitated with diethyl ether. The product was purified by flash column. […] This new dye 9 (max 583 nm, 447 a.u.) has stronger fluorescence compared with DG527 (594 nm, 401 a.u.).

[7] = Self-quenching of fluorescence with increasing dye/protein ratio (FIG. 1); conditions: relative to dye B with six sulfonic groups
[8] = in water, same optical density, excitation at 545 nm
[9] = Table 1, symmetrical dyes, solutions in water

## 1,1,3-trimethyl-3-(3-sulfophenyl)-1H-benzo[e]indolium-disulfonate [CP-13B]
[1]; water
  fluorescence in water: strong fluorescence

## CCN1C(=CC=CC2=[N+](CCCCCC(=O)O)c3ccc(S(=O)(=O)O)cc3C2(C)C)C(C)(C)c2cc(S(=O)(=O)[O-])ccc21 [Cy3, reference compound]
[1]; [8]
  fluorescence intensity: 422 a.u.
  wavelength of fluorescence maximum: 565 nm
[2]
  optical density remaining: 85%

## CC1(C)C(/C=C/C(=C/C=C2/N(c3cccc(S(=O)(=O)[O-])c3)c3ccc(S(=O)(=O)[O-])cc3C2(C)C)c2ccc(C(=O)O)cc2)=[N+](c2cccc(S(=O)(=O)[O-])c2)c2ccc(S(=O)(=O)[O-])cc21.[Na+].[Na+].[Na+] [Dye 1]
[3]
  absorption maximum: 658 nm
[4]; solution in water, after 25 days of irradiation
  remaining initial fluorescence intensity: 85%
[4]; solutions in water
  photostability relative to Alexa 647: improved photostability

## CC1(C)C(/C=C/C(=C/C=C2/N(c3cccc(S(=O)(=O)O)c3)c3ccc4c(S(=O)(=O)[O-])cc(S(=O)(=O)O)cc4c3C2(C)C)c2ccc(C(=O)O)cc2)=[N+](c2cccc(S(=O)(=O)O)c2)c2ccc3c(S(=O)(=O)O)cc(S(=O)(=O)O)cc3c21 [Dye 5A]
[5]
  stability compared with commercial dyes: better stability
[3]
  absorption maximum: 686 nm
[1]
  fluorescence intensity compared with Dy681 and Dy682: higher
  shift of fluorescence maximum compared with Dy681 and Dy682: red shifted

## CCN1/C(=C/C=C(/C=C/C2=[N+](CC)c3cc(S(=O)(=O)O)c4cc(S(=O)(=O)O)ccc4c3C2(C)C)c2ccc(C(=O)O)cc2)C(C)(C)c2c1cc(S(=O)(=O)[O-])c1cc(S(=O)(=O)O)ccc21 [Dye 6]
[3]
  absorption maximum: 673 nm
[1]
  relative fluorescence intensity: higher relative fluorescence intensity

## CC[n+]1cccc2oc(/C=C/C=C/C=C3/N(CCCCCC(=O)O)c4ccc(S(=O)(=O)[O-])cc4C3(C)C)nc21 [Dye 9]
[6]
  fluorescence intensity: 447 a.u.
  fluorescence max: 583 nm
[6]; compared to laser excitation wavelength (532 nm)
  absorption maximum: about 536 nm
[6]; equimolar solutions in ScanMix
  absorbance at absorption maximum: 0.162 a.u.
  absorption maximum: 536 nm

## CC1(C)C(/C=C/C=C2/N(c3cccc(S(=O)(=O)O)c3)c3cc(S(=O)(=O)[O-])c4cc(S(=O)(=O)O)ccc4c3C2(C)C)=[N+](CCCCCC(=O)O)c2ccc(S(=O)(=O)O)cc21 [Example XX]
[3]
  absorption maximum: 567 nm

## CC1(C)C(/C=C/C=C/C=C2/N(c3cccc(S(=O)(=O)O)c3)c3cc(S(=O)(=O)[O-])c4cc(S(=O)(=O)O)ccc4c3C2(C)C)=[N+](CCCCCC(=O)O)c2ccc(S(=O)(=O)O)cc21 [NR665]
[3]
  absorption maximum: 664 nm
[1]; in water
  fluorescence strength relative to Dy681: more than 3 times
[1]; water
  fluorescence max: 687 nm

## CC1(C)C(/C=C/C=C/C=C2/N(c3ccccc3)c3ccccc3C2(C)C)=[N+](c2ccccc2)c2ccccc21 [S0 (2), reference compound]
[3]; [9]
  Absorption max, nm: 649 nm
[1]; Table 1, symmetrical dyes in water, S0 (2) = 100
  Fluorescence intensity, %: 100%
[1]; [9]
  Fluorescence max, nm: 674 nm

## CC[N+]1=C(/C=C/C=C/C=C2/N(CCCCCC(=O)O)c3ccc(S(=O)(=O)O)cc3C2(C)C)C(C)(C)c2cc(S(=O)(=O)[O-])ccc21 [dye A]
[7]
  self-quenching with increasing dye concentration: more readily self-quenched
